# From BindingDB's records for doi:10.1016/s0960-894x(01)00019-1 (Glaxowellcome Medicines Research Centre, 2001)
# Assay: Inhibitory activity against influenza A sialidase (Aichi)
row,SMILES,IC50 [nM]
1,"CCCN(CCc1ccccc1)C(=O)[C@@H]1OC(C(=O)O)=C[C@H](N)[C@H]1NC(=O)CC [(4S,5R,6R)-4-Amino-6-(phenethyl-propyl-carbamoyl)-5-propionylamino-5,6-dihydro-4H-pyran-2-carboxylic acid]",0.7
2,"CCCN(CCC)C(=O)[C@@H]1OC(C(=O)O)=C[C@H](N)[C@H]1NS(C)(=O)=O [(4S,5R,6R)-4-Amino-6-dipropylcarbamoyl-5-methanesulfonylamino-5,6-dihydro-4H-pyran-2-carboxylic acid]",3000
3,"CCCN(CCc1ccccc1)C(=O)[C@@H]1OC(C(=O)O)=C[C@H](N)[C@H]1NC(=O)C1CC1 [(4S,5R,6R)-4-Amino-5-(cyclopropanecarbonyl-amino)-6-(phenethyl-propyl-carbamoyl)-5,6-dihydro-4H-pyran-2-carboxylic acid]",50
4,"CCCN(CCc1ccccc1)C(=O)[C@@H]1OC(C(=O)O)=C[C@H](N)[C@H]1NC(=O)C(F)(F)F [(4S,5R,6R)-4-Amino-6-(phenethyl-propyl-carbamoyl)-5-(2,2,2-trifluoro-acetylamino)-5,6-dihydro-4H-pyran-2-carboxylic acid]",3
5,"CCCN(CCc1ccccc1)C(=O)[C@@H]1OC(C(=O)O)=C[C@H](O)[C@H]1NC(C)=O [(4S,5R,6R)-5-Acetylamino-4-hydroxy-6-(phenethyl-propyl-carbamoyl)-5,6-dihydro-4H-pyran-2-carboxylic acid]",7
6,"CCCN(CCC)C(=O)[C@@H]1OC(C(=O)O)=C[C@H](N)[C@H]1NC(=O)C(C)C [(4S,5R,6R)-4-Amino-6-dipropylcarbamoyl-5-isobutyrylamino-5,6-dihydro-4H-pyran-2-carboxylic acid]",17000
7,"CCCN(CCC)C(=O)[C@@H]1OC(C(=O)O)=C[C@H](NC)[C@H]1NC(C)=O [(4S,5R,6R)-5-Acetylamino-6-dipropylcarbamoyl-4-methylamino-5,6-dihydro-4H-pyran-2-carboxylic acid]",240
8,"CCCN(CCC)C(=O)[C@@H]1OC(C(=O)O)=C[C@H](N)[C@H]1NC(=O)C(F)(F)F [(4S,5R,6R)-4-Amino-6-dipropylcarbamoyl-5-(2,2,2-trifluoro-acetylamino)-5,6-dihydro-4H-pyran-2-carboxylic acid]",0.3
9,"CCCN(CCC)C(=O)[C@@H]1OC(C(=O)O)=C[C@H](N)[C@H]1NC(=O)CC [(4S,5R,6R)-4-Amino-6-dipropylcarbamoyl-5-propionylamino-5,6-dihydro-4H-pyran-2-carboxylic acid]",5
10,"CCCN(CCc1ccccc1)C(=O)[C@@H]1OC(C(=O)O)=C[C@@H](O)[C@H]1NC(C)=O [(4R,5R,6R)-5-Acetylamino-4-hydroxy-6-(phenethyl-propyl-carbamoyl)-5,6-dihydro-4H-pyran-2-carboxylic acid]",17
11,"CCCN(CCC)C(=O)[C@@H]1OC(C(=O)O)=C[C@H](NCC)[C@H]1NC(C)=O [(4S,5R,6R)-5-Acetylamino-6-dipropylcarbamoyl-4-ethylamino-5,6-dihydro-4H-pyran-2-carboxylic acid]",420
12,"CCCC(=O)N[C@@H]1[C@@H](N)C=C(C(=O)O)O[C@H]1C(=O)N(CCC)CCc1ccccc1 [(4S,5R,6R)-4-Amino-5-butyrylamino-6-(phenethyl-propyl-carbamoyl)-5,6-dihydro-4H-pyran-2-carboxylic acid]",43000
13,"CCCN(CCc1ccccc1)C(=O)[C@@H]1OC(C(=O)O)=CC[C@H]1NC(C)=O [(5R,6R)-5-Acetylamino-6-(phenethyl-propyl-carbamoyl)-5,6-dihydro-4H-pyran-2-carboxylic acid]",7
14,"CCCN(CCC)C(=O)[C@@H]1OC(C(=O)O)=C[C@@H](N)[C@H]1NC(C)=O [(4R,5R,6R)-5-Acetylamino-4-amino-6-dipropylcarbamoyl-5,6-dihydro-4H-pyran-2-carboxylic acid]",140
